Measurements as given in article PMC10667816, “A Cell‐Penetrant Peptide Disrupting the Transcription Factor CP2c Complexes Induces Cancer‐Specific Synthetic Lethality” (Advanced Science, 2023).
Entries after “also recorded” stand apart in the source; their conditions may differ. *1 amine or outer side, *2 acyl side, *3 side chain or, on linkers, in order; H or OH if unused. Where a SMILES comes first, the peptide text is derived from it. Side-chain parts run from the residue outwards. The star is where a group is joined. γGlu = O=C(O)[C@H](CCC(=O)[*:2])N[*:1]; Palmitoyl = CCCCCCCCCCCCCCCC(=O)*

Assays:
[1] = system: Hep3B; assay: Hep3B CDX mouse model; type: in vivo
Procedure: Animal experiments were conducted in accordance with ethical guidelines, and all protocols were approved by the Institutional Animal Care and Use Committee under Hanyang University (approval numbers, 2014‐0016A, 2018‐0049A, 2018‐0207A, and 2019‐0169A), Chung‐Ang University (approval number, 2015‐00022), Chungbuk University (approval number, CBNUA‐1072‐17‐02), and Konkuk University (approval number, KU17130). To establish xenograft mice models, Hep3B, A431, U343, and PC9 cells were subcutaneously injected into the flank of Balb/c nude mice. For the MDA‐MB‐231 (LM1) cell line, it was implanted into the mammary fat pad of immunodeficient mice (NPG mice). Once tumors were successfully established, the animals were randomly divided into a control (vehicle) group and an experimental (drug) group. When the tumor volume reached 100 cubic millimeters, either saline or an appropriate concentration of drugs was administrated into mice via tail vein every 3 or 5 days for appropriate duration. Tumor volume was calculated using the formula of length × width^2)/2. To generate an orthotopic liver cancer mice model, 75 mg kg^−1 (mpk) of DEN was intraperitoneally injected weekly for 3 weeks into C57BL/6 mice, followed by 100 mpk of DEN weekly for the subsequent 3 weeks. After 37 weeks of liver cancer induction, mice received either saline or an appropriate concentration of drugs via the tail vein every 5 days for the designated duration. The in vivo administration amount was determined based on the concentration of ACP52C confirmed at the cellular level, which was 2 µM. Assuming an average mouse weight of 30 grams and considering that ≈5.8% of body weight constitutes blood volume,^[ [49] ^] it was calculated that the blood concentration of ACP52C should be ten times the GI50 concentration in cell culture conditions. […] For ACP52C derivatives, the amount was adjusted to ensure a similar molar quantity of peptide injection, taking their molecular weights into account. For instance, in the case of ACP52CGK, ≈1.67 times the quantity was used compared to ACP52C to achieve an equivalent molar quantity. At the time of sacrifice, major organs and tumors were removed and weighed, and blood was extracted. For histological analysis, major organs and tumors of mice were immediately fixed in 10% formalin neutral buffer solution, dehydrated through a graded series of ethanol treatments, treated with xylene, paraffin embedded, and cut into 4 µm sections. Hematoxylin and eosin (H&E)‐stained tissue sections were analyzed and photographed, and the representative histological images were recorded. Liver nodules in the DEN orthotopic liver cancer model were estimated by measuring the ratio of tumor areas over entire liver tissues in the tissue section using an Image J (version 1.51) software at 40× magnification. Complete blood count (CBC) analysis was conducted using a Hematology analyzer (scil Vet ABC) from the extracted blood.

[2] = Storage stability of peptide activity; type: physicochemical; conditions: stored in powder or solution form in a deep freezer
[3] = Nanoparticle formation in solution (DLS); type: physicochemical; conditions: DLS in saline, 25 °C, each sample analyzed five times
Procedure: For determining the dimensions and nanoparticle formation of the peptides in solution, DLS analysis was performed using the Scatteroscope I nanoparticle size analyzer (K‐One, SOS1). Saline served as the negative control, and all experiments were conducted at a constant temperature of 25 °C. Each sample was analyzed five times, and the resulting data were graphically presented, incorporating all five profiles obtained from the experiments. The purity and dimer formation of the peptides were analyzed using HPLC and LC‐MS. HPLC analysis was carried out using a Shimadzu HPLC LabSolution equipped with a pump, an autosampler, a column oven, and a UV–vis detector. Chromatographic separation was performed on a Shimadzu C18 analytical column at 35 °C, with an injection volume of 20 µL (0.5 mg mL^−1). The mobile phases consisted of 0.05% trifluoroacetic acid (TFA) in water (A) and 0.05% TFA in acetonitrile (B). The flow rate was maintained at 1 mL min^−1, and the gradient program was as follows: 20–80% B over 30 min. Ionization was achieved using electrospray ionization (ESI) in positive mode with selected reaction monitoring (SRM). Mass spectrometry analysis was performed with an ESI source in the positive‐ionization mode.

[4] = system: murine erythroleukemia (MEL) cells; assay: Erythroid differentiation of MEL cells; type: cell-based; conditions: HMBA‐induced MEL cells, supplementation to the culture
Procedure: Information of the cell lines is listed in Table S1 (Supporting Information), including their origin and culture conditions. All cell lines were cultured at 37 °C, 5% CO2 incubator. MDA‐MB‐231 (LM1), HepG2, Hep3B, and HCT116 cell lines were authenticated with short tandem repeat markers based on ATCC information. All cell lines tested negative for mycoplasma contamination. Transient downregulation of the gene of interest was conducted by siRNA transfection using Lipofectamine 2000 (Thermo Fisher, 11668019) according to the manufacturer's instructions. Information about siRNAs is provided in Table S2 (Supporting Information). Stable cell lines were established by transfecting cells using Effectene reagent (Qiagen, 301425), followed by selection of cell clones in the presence of 1 µg mL^−1 puromycin (Sigma–Aldrich, P8833). The establishment of cell lines was confirmed by WB or RT‐qPCR. For doxycycline‐inducible gene expression regulation, cell lines were incubated in the presence of 1 µg mL^−1 doxycycline (Sigma–Aldrich, D9891) for 2–3 days. To promote sphere formation of the cell lines, each well of the tissue culture dish was coated with 10% poly 2‐hydroxyethyl methacrylate (polyHEMA). An appropriate number of cells per well were seeded in serum‐free DMEM/F12 (HyClone, SH30023.01) supplemented with B27, 20 ng mL^−1 bFGF, and 20 ng mL^−1 EGF. For erythroid terminal differentiation experiments, differentiation was assessed by hemoglobin staining using a 0.2% (w/v) tetramethylbenzidine solution (Sigma–Aldrich, T0440) in 0.6% hydrogen peroxide, 3% acetic acid for 10 min in dark condition. Benzidine‐positive or negative cell numbers were counted under the inverted microscope BX50 (Olympus) at 200 × magnification. […] After each synchronization, cells were fixed at 4‐h intervals for 24 h with ACP52C treatment, and the cell cycle was analyzed by Propidium Iodide (PI) staining or intracellular protein was analyzed by immunofluorescence. […] This development period was repeated four times for one round, after which GI50 concentrations were re‐assessed in each resistant cell line. […]

[5] = administered at five‐day intervals
[6] = intravenous injection at three‐day intervals, Sorafenib orally once daily as positive control

Row | SMILES | anti‐tumor activity [1, 5] | anti‐tumor activity [1, 6] | loss of activity on storage [2] | nanoparticle formation [3] | inhibition of erythroid differentiation [4]
1 | CCCCCCCCCCCCCCCC(=O)N[C@@H](CCC(=O)NCCCC[C@H](NC(=O)CNC(=O)CNC(=O)[C@@H]1CCCN1C(=O)[C@H](CCCNC(=N)N)NC(=O)[C@H](CCC(N)=O)NC(=O)[C@@H]1CCCN1C(=O)[C@H](Cc1ccc(O)cc1)NC(=O)[C@H](CC(N)=O)NC(C)=O)C(=O)NCC(=O)NCC(=O)N[C@@H](CS)C(=O)N[C@@H](CCCNC(=N)N)C(=O)NCC(=O)N[C@@H](CC(=O)O)C(=O)N[C@@H](CCCCN)C(=O)NCC(=O)N1CCC[C@H]1C(=O)N[C@@H](CC(=O)O)C(=O)N[C@@H](CS)C(N)=O)C(=O)O [ACP52CGK] (Ac-NYPQRPGGK([γGlu-Palmitoyl])GGCRGDKGPDC-NH2) | maintained its activity; also recorded: remarkable anti‐tumor efficacy | activity similar to that of ACP52C | gradually lose their activity over one year | significant reduction in nanoparticle formation | –
2 | CC(=O)N[C@@H](CC(N)=O)C(=O)N[C@@H](Cc1ccc(O)cc1)C(=O)N1CCC[C@H]1C(=O)N[C@@H](CCC(N)=O)C(=O)N[C@@H](CCCNC(=N)N)C(=O)N1CCC[C@H]1C(=O)N[C@@H](CS)C(=O)N[C@@H](CCCNC(=N)N)C(=O)NCC(=O)N[C@@H](CC(=O)O)C(=O)N[C@@H](CCCCN)C(=O)NCC(=O)N1CCC[C@H]1C(=O)N[C@@H](CC(=O)O)C(=O)N[C@@H](CS)C(N)=O [ACP52C] (Ac-NYPQRPCRGDKGPDC-NH2) | reduced anti‐tumor activity compared to the three‐day interval administration | superior anti‐tumor activity compared to Sorafenib | gradually lose their activity over one year | majority of ACP52C exists in the form of nanoparticles in saline | inhibition of erythroid differentiation
3 | CCOc1ccccc1C1CC(=O)Nc2cc3c(cc21)OCO3 (stereo not shown) [FQI1, Factor Quinolinone Inhibitor 1, reference compound] | – | – | – | – | limited inhibitory effects on MEL cell differentiation in vitro
